Assay results published in ChEMBL document CHEMBL1201862, “PubChem BioAssay data set” (2004).
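Dose response: 5 concentrations. Exposure: 48 h. Format: 96-well plates. Endpoint: linear interpolation; highest concentration if not reached. Here, GI50 denotes the concentration required for 50% inhibition of growth.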 Activity calls are given as the source filed them. No stated cut-off is given here; in the data, active = GI50 up to about 1.1 µM and inactive = higher.

Tests used:
Experiment in all cases: NCI tumour cell line growth inhibition, 48 h
SNB-19 = test system: SNB-19
LOX IMVI = test system: LOX IMVI
HCC 2998 = test system: HCC 2998
MCF7 = test system: MCF7
COLO 205 = test system: COLO 205
NCI-H23 = test system: NCI-H23
HOP-92 = test system: HOP-92
HL-60 = test system: HL-60
HCT-116 = test system: HCT-116
UO-31 = test system: UO-31
RXF 393 = test system: RXF 393
MDA-N = test system: MDA-N
MOLT-4 = test system: MOLT-4
PC-3 = test system: PC-3
OVCAR-5 = test system: OVCAR-5
KM12 = test system: KM12
OVCAR-4 = test system: OVCAR-4

SMILES	GI50 (SNB-19)	GI50 (LOX IMVI)	GI50 (HCC 2998)	GI50 (MCF7)	GI50 (COLO 205)	GI50 (NCI-H23)	GI50 (HOP-92)	GI50 (HL-60)	GI50 (HCT-116)	GI50 (UO-31)	GI50 (RXF 393)	GI50 (MDA-N)	GI50 (MOLT-4)	GI50 (PC-3)	GI50 (OVCAR-5)	GI50 (KM12)	GI50 (OVCAR-4)
C/C=C/[C@H]1O[C@@](OC)([C@@H](C)[C@H](O)[C@H](C)[C@H]2OC(=O)/C(OC)=C/C(C)=C/[C@@H](C)[C@@H](O)[C@@H](C)[C@@H](O)[C@H](C)C/C(C)=C/C=C/[C@@H]2OC)CC(OC2CC(O)C(OC(N)=O)C(C)O2)[C@@H]1C (stereo not given in full)	2.9 µM (inactive)	< 0.01 µM (active)	< 0.01 µM (active)	< 0.01 µM (active)	< 0.01 µM (active)	1.99 µM (inactive)	0.103 µM (active)	< 0.01 µM (active)	< 0.01 µM (active)	< 0.01 µM (active)	2.39 µM (inactive)	< 0.01 µM (active)	< 0.01 µM (active)	< 0.01 µM (active)	1.82 µM (inactive)	< 0.01 µM (active)	
O=[N+]([O-])c1ccc(/N=N/N2CCCC2)cc1	> 100 µM (inactive)	> 100 µM (inactive)	4.38 µM (inactive)	> 100 µM (inactive)	> 100 µM (inactive)	> 100 µM (inactive)	> 100 µM (inactive)	32.2 µM (inactive)	> 100 µM (inactive)	> 100 µM (inactive)	> 100 µM (inactive)	> 100 µM (inactive)	> 100 µM (inactive)	> 100 µM (inactive)	> 100 µM (inactive)	> 100 µM (inactive)	> 100 µM (inactive)
Cc1nc2c(O)nc3ccccc3c2o1	> 100 µM (inactive)	> 100 µM (inactive)	> 100 µM (inactive)	> 100 µM (inactive)	> 100 µM (inactive)	> 100 µM (inactive)	> 100 µM (inactive)	> 100 µM (inactive)	> 100 µM (inactive)	> 100 µM (inactive)	> 100 µM (inactive)	> 100 µM (inactive)	> 10 µM (inactive)	> 100 µM (inactive)	> 100 µM (inactive)	> 100 µM (inactive)	> 100 µM (inactive)
N#CC1CCCC2SC(F)(F)C(F)(F)C12 (stereo not given)	> 100 µM (inactive)	41.6 µM (inactive)	> 100 µM (inactive)	> 100 µM (inactive)	> 100 µM (inactive)	> 100 µM (inactive)	> 100 µM (inactive)	19.7 µM (inactive)	> 100 µM (inactive)	> 100 µM (inactive)	> 100 µM (inactive)	> 100 µM (inactive)	26.6 µM (inactive)	> 100 µM (inactive)	> 100 µM (inactive)	> 100 µM (inactive)	> 100 µM (inactive)
C/C(=N\n1c(Cc2ccccc2)n[nH]c1=O)c1ccc([N+](=O)[O-])cc1	> 100 µM (inactive)	> 100 µM (inactive)		21 µM (inactive)	> 100 µM (inactive)	> 100 µM (inactive)	25.6 µM (inactive)	> 100 µM (inactive)	> 100 µM (inactive)	> 100 µM (inactive)	16.6 µM (inactive)	> 100 µM (inactive)	52.8 µM (inactive)	> 100 µM (inactive)	> 100 µM (inactive)	> 100 µM (inactive)	> 100 µM (inactive)
COc1c(Br)cc2ccccc2c1-c1c(OC)c(Br)cc2ccccc12	> 100 µM (inactive)	> 100 µM (inactive)	> 100 µM (inactive)	49.9 µM (inactive)	> 100 µM (inactive)	> 100 µM (inactive)	> 100 µM (inactive)	25.6 µM (inactive)		> 100 µM (inactive)	> 100 µM (inactive)	> 100 µM (inactive)	6.32 µM (inactive)	95.9 µM (inactive)	> 100 µM (inactive)	79.1 µM (inactive)	> 100 µM (inactive)
COC(=O)C1CCC(=O)N1C(c1ccc(OC)cc1)c1ccc2c(c1)OCO2 (stereo not given)	37.2 µM (inactive)	50.4 µM (inactive)	28.7 µM (inactive)	36.7 µM (inactive)	37.9 µM (inactive)	82.8 µM (inactive)	> 100 µM (inactive)	21.2 µM (inactive)	29 µM (inactive)	27.5 µM (inactive)		7.46 µM (inactive)	36.3 µM (inactive)	45.3 µM (inactive)	50 µM (inactive)	9.46 µM (inactive)	> 100 µM (inactive)
C/C(=C/CC[C@](C)(OC1OC(CO)C(O)C(O)C1O)[C@H]1CC[C@]2(C)[C@@H]1CC[C@@H]1[C@@]3(C)CC[C@H](O)C(C)(C)[C@@H]3C[C@H](O)[C@]12C)CO (stereo not given in full)	22 µM (inactive)	18.1 µM (inactive)		34.8 µM (inactive)	21.3 µM (inactive)	45.1 µM (inactive)	27.4 µM (inactive)	16.5 µM (inactive)	18.2 µM (inactive)	37.9 µM (inactive)	3.46 µM (inactive)	24.2 µM (inactive)	12.2 µM (inactive)	31.5 µM (inactive)	49.8 µM (inactive)	22.7 µM (inactive)	51.9 µM (inactive)
CC(=O)OCCn1cnc2c(NCC=C(C)C)ncnc21	> 100 µM (inactive)	> 100 µM (inactive)		> 100 µM (inactive)	> 100 µM (inactive)	> 100 µM (inactive)	> 100 µM (inactive)	> 100 µM (inactive)	> 100 µM (inactive)	> 100 µM (inactive)	> 100 µM (inactive)	> 100 µM (inactive)	> 100 µM (inactive)	> 100 µM (inactive)	> 100 µM (inactive)	> 100 µM (inactive)	> 100 µM (inactive)
N#CCCN(CCC#N)c1ccc(C(=N/c2ccc(Cl)cc2)/N=N/c2ccccc2)cc1	> 100 µM (inactive)		26.6 µM (inactive)	> 100 µM (inactive)	48.8 µM (inactive)	54.2 µM (inactive)	> 100 µM (inactive)		> 100 µM (inactive)	23.8 µM (inactive)	16.9 µM (inactive)	> 100 µM (inactive)	> 100 µM (inactive)	> 100 µM (inactive)	> 100 µM (inactive)	58.5 µM (inactive)	66.5 µM (inactive)
CCOC(=O)c1c(N2CCCC2)[nH]c(=O)c(C(c2c(O)c(C(=O)OCC)c(N3CCCC3)[nH]c2=O)C(C)C)c1O	70.6 µM (inactive)	> 100 µM (inactive)	52.8 µM (inactive)	> 100 µM (inactive)	> 100 µM (inactive)	71.1 µM (inactive)	28.7 µM (inactive)		> 100 µM (inactive)	> 100 µM (inactive)	43 µM (inactive)	> 100 µM (inactive)	> 100 µM (inactive)	33.6 µM (inactive)	33.2 µM (inactive)	> 100 µM (inactive)	> 100 µM (inactive)
Nc1nc(Cl)c(N)c(NCC2(CO)CCCC2)n1	> 100 µM (inactive)	97.9 µM (inactive)	> 100 µM (inactive)	90.6 µM (inactive)			> 100 µM (inactive)	> 100 µM (inactive)	> 100 µM (inactive)	> 100 µM (inactive)	78.7 µM (inactive)	> 100 µM (inactive)	74.8 µM (inactive)	> 100 µM (inactive)	> 100 µM (inactive)	> 100 µM (inactive)	> 100 µM (inactive)
O=C(/C=C/c1ccc(O)c(O)c1)OCCOC(=O)/C=C/c1ccc(O)c(O)c1	40.3 µM (inactive)	28.6 µM (inactive)	31.8 µM (inactive)	34.5 µM (inactive)	19.5 µM (inactive)	29.4 µM (inactive)	42.2 µM (inactive)		21.1 µM (inactive)	23.2 µM (inactive)	22.6 µM (inactive)	19.8 µM (inactive)	20.9 µM (inactive)	32 µM (inactive)	14.2 µM (inactive)	17.6 µM (inactive)	39.1 µM (inactive)
Cc1cn(CCCCC2=NCCCN2)c(=O)[nH]c1=O	> 52.8 µM (inactive)	> 25.6 µM (inactive)	> 26.3 µM (inactive)	> 26.3 µM (inactive)	> 31.1 µM (inactive)	> 31.2 µM (inactive)	3.66 µM (inactive)		> 23.3 µM (inactive)	> 24.8 µM (inactive)	25.8 µM (inactive)	> 100 µM (inactive)	> 26.7 µM (inactive)	> 26.7 µM (inactive)	> 30.3 µM (inactive)	> 31.3 µM (inactive)	> 29.5 µM (inactive)
COc1cc(OC)c(OC)cc1/C=C/c1cc[n+](C)c2ccccc12	8.45 µM (inactive)		52.6 µM (inactive)	49.2 µM (inactive)	5.96 µM (inactive)	12.1 µM (inactive)	23.9 µM (inactive)	14 µM (inactive)	27.8 µM (inactive)	> 100 µM (inactive)	53.1 µM (inactive)	24.3 µM (inactive)	21.2 µM (inactive)	20.7 µM (inactive)	> 100 µM (inactive)	19.8 µM (inactive)	46.9 µM (inactive)
COc1ccc(N/N=C2\CCOc3ccc(C)cc3C2=O)cc1	39.7 µM (inactive)	12.4 µM (inactive)	13.6 µM (inactive)	14.4 µM (inactive)	23.4 µM (inactive)		18.1 µM (inactive)	11.9 µM (inactive)	19.5 µM (inactive)	24 µM (inactive)		3.98 µM (inactive)	11.1 µM (inactive)	10.6 µM (inactive)	91.4 µM (inactive)	5.08 µM (inactive)	14.5 µM (inactive)
CCOC(=O)Nn1c(CC#N)nnc1Cc1ccccc1	> 100 µM (inactive)		> 100 µM (inactive)	> 100 µM (inactive)		> 100 µM (inactive)	> 100 µM (inactive)	> 100 µM (inactive)	> 100 µM (inactive)	> 100 µM (inactive)	> 100 µM (inactive)	> 100 µM (inactive)	> 100 µM (inactive)	> 100 µM (inactive)	> 100 µM (inactive)	> 100 µM (inactive)	
